According to patent US11117905B2, “Bisaryl heterocycles as NRF2 activators” (GLAXOSMITHKLINE INTELLECTUAL PROPERTY DEVELOPMENT LIMITED, priority 2016, dated 2021):

test system: NQO1 specific enzyme activity in BEAS-2B cells (marker for NRF2 activation); experiment: BEAS-2B NQO1 MTT Assay; format: cell-based; conditions: Homo sapiens, BEAS-2B, 48 h, NQO1 specific activity induction, 48 hours with compound
Source text: NAD(P)H:quinone oxidoreductase 1 (NQO1), also called DT diaphorase, is a homodimeric FAD-containing enzyme that catalyzes obligatory NAD(P)H-dependent two-electron reductions of quinones and protects cells against the toxic and neoplastic effects of free radicals and reactive oxygen species arising from one-electron reductions. The transcription of NQO1 is finely regulated by NRF2, and thus NQO1 activity is a good marker for NRF2 activation. On day one, frozen BEAS-2B cells (ATCC) were thawed in a water bath, counted, and re-suspended at a concentration of 250,000 cells/mL. Fifty microliters of cells were plated in 384 well black clear-bottomed plates. Plates were incubated at 37° C., 5% CO2 overnight. On day two, plates were centrifuged and 50 nL of compound or controls were added to the cells. Plates were then incubated at 37° C., 5% CO2 for 48 hours. On day four, medium was aspirated from the plate and crude cell lysates were made by adding 13 uL of 1× Cell Signaling Technologies lysis buffer with 1 Complete, Mini, EDTA-free Protease Inhibitor Tablet (Roche) for each 10 mL of lysis buffer. After lysis plates were incubated for 20 minutes at room temperature. Two microliters of lysate were removed for use in Cell Titer Glo assay (Promega) and MTT cocktail was prepared (Prochaska et. al. 1998) for measurement of NQO1 activity. Fifty microliters of MTT cocktail is added to each well, plate is centrifuged, and analyzed on an Envision plate reader (Perkin Elmer) using Absorbance 570 nm label for 30 minutes. Product formation was measured kinetically and the pEC50 of NQO1 specific activity induction was calculated by plotting the change in absorbance (Delta OD/min) versus the log of compound concentration followed by 3-parameter fitting.
pEC50 is the negative log of the EC50.
EC50s<1 nM (+++++), EC50s 1 nM-10 nM (++++), EC50s 10 nM-100 nM (+++), EC50s 100 nM-1 uM (++), EC50s 1 uM-10 uM (+), EC50s>10 uM (−), or were not determined (ND).

Q: With CC[C@@H]1CN(Cc2cc([C@H](c3ccc4c(nnn4CC)c3C)C(C)(C)C(=O)O)sc2C)S(=O)(=O)c2ccccc2O1 [Example 11, (R)-3-(4-(((R)-4-Ethyl-1,1-dioxido-3,4-dihydro-2H-benzo[b][1,4,5]oxathiazepin-2-yl)methyl)-5-methylthiophen-2-yl)-3-(1-ethyl-4-methyl-1H-benzo[d][1,2,3]triazol-5-yl)-2,2-dimethylpropanoic Acid] as the molecule, how does the EC50 read?
A: 10 to 100 nM

Q: Which EC50 does the source give for CC[C@H]1Cc2ccc(C(F)(F)F)cc2S(=O)(=O)N(Cc2nc([C@@H](c3ccc4c(nnn4CC)c3C)C(C)(C)C(=O)Nc3cccnc3)sc2C)C1 [Example 48, (S)-3-(4-(((S)-4-Ethyl-1,1-dioxido-8-(trifluoromethyl)-4,5-dihydrobenzo[f][1,2]thiazepin-2(3H)-yl)methyl)-5-methylthiazol-2-yl)-3-(1-ethyl-4-methyl-1H-benzo[d][1,2,3]triazol-5-yl)-2,2-dimethyl-N-(pyridin-3-yl)propanamide] here?
A: 10 to 100 nM

Q: CC[C@@H]1CN(Cc2nc([C@@H](c3ccc4c(nnn4CC)c3C)C(C)(C)C(=O)O)sc2C)S(=O)(=O)c2cnccc2O1 [Example 27, (S)-3-(4-(((R)-4-Ethyl-1,1-dioxido-3,4-dihydro-2H-pyrido[4,3-b][1,4,5]oxathiazepin-2-yl)methyl)-5-methylthiazol-2-yl)-3-(1-ethyl-4-methyl-1H-benzo[d][1,2,3]triazol-5-yl)-2,2-dimethylpropanoic Acid] was tested. Which EC50 did it give?
A: < 1 nM

Q: CC[C@@H]1CN(Cc2nc([C@@H](c3ccc4c(nnn4CC)c3C)C(C)(C)C(=O)Nc3cccnc3)sc2C)S(=O)(=O)c2cccnc2O1 [Example 25, (S)-3-(4-(((R)-4-Ethyl-1,1-dioxido-3,4-dihydro-2H-pyrido[2,3-b][1,4,5]oxathiazepin-2-yl)methyl)-5-methylthiazol-2-yl)-3-(1-ethyl-4-methyl-1H-benzo[d][1,2,3]triazol-5-yl)-2,2-dimethyl-N-(pyridin-3-yl)propanamide] was tested. Which EC50 did it give?
A: 100 to 1000 nM

Q: Which EC50 does the source give for CC[C@@H]1CN(Cc2cc([C@@H](c3ccc4c(nnn4CC)c3F)C(C)(C)C(=O)O)sc2Cl)S(=O)(=O)c2ccccc2O1 [Example 53, (R)-3-(5-Chloro-4-(((R)-4-ethyl-1,1-dioxido-3,4-dihydro-2H-benzo[b][1,4,5]oxathiazepin-2-yl)methyl)thiophen-2-yl)-3-(1-ethyl-4-fluoro-1H-benzo[d][1,2,3]triazol-5-yl)-2,2-dimethylpropanoic Acid] here?
A: < 1 nM

Q: For CC[C@@H]1CN(Cc2nc([C@@H](c3ccc4c(nnn4CC)c3C)C(C)(C)C(=O)Nc3cccnc3)sc2C)S(=O)(=O)c2ncccc2O1 [Example 30, (S)-3-(4-(((R)-4-Ethyl-1,1-dioxido-3,4-dihydro-2H-pyrido[3,2-b][1,4,5]oxathiazepin-2-yl)methyl)-5-methylthiazol-2-yl)-3-(1-ethyl-4-methyl-1H-benzo[d][1,2,3]triazol-5-yl)-2,2-dimethyl-N-(pyridin-3-yl)propanamide], which EC50 is on record?
A: 100 to 1000 nM

Q: For CCn1cc(CC[C@H](c2cc(CN3C[C@@H](C)Cc4ncccc4S3(=O)=O)c(C)s2)C(C)(C)C(=O)O)nn1 [Example 62, (S)-5-(1-Ethyl-1H-1,2,3-triazol-4-yl)-2,2-dimethyl-3-(5-methyl-4-(((S)-4-methyl-1,1-dioxido-4,5-dihydropyrido[2,3-f][1,2]thiazepin-2(3H)-yl)methyl)thiophen-2-yl)pentanoic Acid], which EC50 is on record?
A: 1 to 10 nM

Q: Which EC50 does the source give for CC[C@H]1Cc2ccc(C(F)(F)F)cc2S(=O)(=O)N(Cc2nc([C@@H](c3ccc4c(nnn4CC)c3C)C(C)(C)C(=O)O)sc2C)C1 [Example 49, (S)-3-(4-(((S)-4-Ethyl-1,1-dioxido-8-(trifluoromethyl)-4,5-dihydrobenzo[f][1,2]thiazepin-2(3H)-yl)methyl)-5-methylthiazol-2-yl)-3-(1-ethyl-4-methyl-1H-benzo[d][1,2,3]triazol-5-yl)-2,2-dimethylpropanoic Acid] here?
A: < 1 nM

Q: CC[C@@H]1CN(Cc2cc([C@H](CC(=O)O)c3ccc4c(nnn4CC)c3C)sc2Cl)S(=O)(=O)c2cnccc2O1 [Example 22, (R)-3-(5-chloro-4-(((R)-4-ethyl-1,1-dioxido-3,4-dihydro-2H-pyrido[4,3-b][1,4,5]oxathiazepin-2-yl)methyl)thiophen-2-yl)-3-(1-ethyl-4-methyl-1H-benzo[d][1,2,3]triazol-5-yl)propanoic Acid] was tested. Which EC50 did it give?
A: 10 to 100 nM

Q: How did the EC50 turn out when CC[C@@H]1CN(Cc2cc([C@@H](CC(=O)O)c3ccc4c(nnn4CC)c3C)sc2Cl)S(=O)(=O)c2cccnc2O1 [Example 2, (S)-3-(5-Chloro-4-(((R)-4-ethyl-1,1-dioxido-3,4-dihydro-2H-pyrido[2,3-b][1,4,5]oxathiazepin-2-yl)methyl)thiophen-2-yl)-3-(1-ethyl-4-methyl-1H-benzo[d][1,2,3]triazol-5-yl)propanoic acid] was run?
A: 1000 to 10000 nM

Q: Which EC50 does the source give for CC[C@@H]1CN(Cc2cc([C@H](c3ccc4c(nnn4CC)c3C)C(C)(C)C(=O)O)sc2Cl)S(=O)(=O)c2cnccc2O1 [Example 36, (R)-3-(5-Chloro-4-(((R)-4-ethyl-1,1-dioxido-3,4-dihydro-2H-pyrido[4,3-b][1,4,5]oxathiazepin-2-yl)methyl)thiophen-2-yl)-3-(1-ethyl-4-methyl-1H-benzo[d][1,2,3]triazol-5-yl)-2,2-dimethylpropanoic Acid] here?
A: 100 to 1000 nM

Q: How did the EC50 turn out when CC[C@@H]1CN(Cc2cc([C@H](CC(=O)O)c3ccc4c(nnn4CC)c3C)sc2Cl)S(=O)(=O)c2cccnc2O1 [Example 6, (R)-3-(5-Chloro-4-(((R)-4-ethyl-1,1-dioxido-3,4-dihydro-2H-pyrido[2,3-b][1,4,5]oxathiazepin-2-yl)methyl)thiophen-2-yl)-3-(1-ethyl-4-methyl-1H-benzo[d][1,2,3]triazol-5-yl)propanoic acid] was run?
A: 10 to 100 nM

Q: How did the EC50 turn out when CCn1nnc2c(C)c([C@H](c3cc(CN4C[C@@H](C)Cc5ncccc5S4(=O)=O)c(C)s3)C(C)(C)C(=O)O)ccc21 [Example 19, (S)-3-(1-Ethyl-4-methyl-1H-benzo[d][1,2,3]triazol-5-yl)-2,2-dimethyl-3-(5-methyl-4-(((S)-4-methyl-1,1-dioxido-4,5-dihydropyrido[2,3-f][1,2]thiazepin-2(3H)-yl)methyl)thiophen-2-yl)propanoic Acid] was run?
A: < 1 nM

Q: How did the EC50 turn out when CC[C@@H]1CN(Cc2cc([C@H](c3ccc4c(nnn4CC)c3C)C(C)(C)C(=O)O)sc2Cl)S(=O)(=O)c2ccccc2O1 [Example 4, (R)-3-(5-Chloro-4-(((R)-4-ethyl-1,1-dioxido-3,4-dihydro-2H-benzo[b][1,4,5]oxathiazepin-2-yl)methyl)thiophen-2-yl)-3-(1-ethyl-4-methyl-1H-benzo[d][1,2,3]triazol-5-yl)-2,2-dimethylpropanoic acid] was run?
A: 100 to 1000 nM

Q: With CC[C@@H]1CN(Cc2nc([C@@H](c3ccc4c(nnn4CC)c3C)C(C)(C)C(=O)O)sc2C)S(=O)(=O)c2ncccc2O1 [Example 29, (S)-3-(4-(((R)-4-Ethyl-1,1-dioxido-3,4-dihydro-2H-pyrido[3,2-b][1,4,5]oxathiazepin-2-yl)methyl)-5-methylthiazol-2-yl)-3-(1-ethyl-4-methyl-1H-benzo[d][1,2,3]triazol-5-yl)-2,2-dimethylpropanoic Acid] as the molecule, how does the EC50 read?
A: 1 to 10 nM

Q: Which EC50 does the source give for CC[C@@H]1CN(Cc2cc([C@@H](CC(=O)O)c3ccc4c(nnn4CC)c3C)sc2C)S(=O)(=O)c2cccnc2O1 [Example 24, (S)-3-(4-(((R)-4-Ethyl-1,1-dioxido-3,4-dihydro-2H-pyrido[2,3-b][1,4,5]oxathiazepin-2-yl)methyl)-5-methylthiophen-2-yl)-3-(1-ethyl-4-methyl-1H-benzo[d][1,2,3]triazol-5-yl)propanoic Acid] here?
A: 100 to 1000 nM

Q: CCn1nnc2c(C)c([C@@H](c3cc(CN4C[C@@H](C)Cc5ncccc5S4(=O)=O)n(C)n3)C(C)(C)C(=O)O)ccc21 [Example 23, (R)-3-(1-Ethyl-4-methyl-1H-benzo[d][1,2,3]triazol-5-yl)-2,2-dimethyl-3-(1-methyl-5-(((S)-4-methyl-1,1-dioxido-4,5-dihydropyrido[2,3-f][1,2]thiazepin-2(3H)-yl)methyl)-1H-pyrazol-3-yl)propanoic Acid] was tested. Which EC50 did it give?
A: 1000 to 10000 nM

Q: Which EC50 does the source give for CCn1nnc2c(C)c([C@@H](c3cc(CN4C[C@@H](C)Cc5ccc(C(F)(F)F)cc5S4(=O)=O)n(C)n3)C(C)(C)C(=O)O)ccc21 [Example 37, (R)-3-(1-Ethyl-4-methyl-1H-benzo[d][1,2,3]triazol-5-yl)-2,2-dimethyl-3-(1-methyl-5-(((S)-4-methyl-1,1-dioxido-8-(trifluoromethyl)-4,5-dihydrobenzo[f][1,2]thiazepin-2(3H)-yl)methyl)-1H-pyrazol-3-yl)propanoic Acid] here?
A: 100 to 1000 nM

Q: How did the EC50 turn out when CCn1nnc2c(C)c([C@H](c3cc(CN4C[C@@H](C)Cc5ccccc5S4(=O)=O)c(C)s3)C(C)(C)C(=O)O)ccc21 [Example 18, (S)-3-(1-Ethyl-4-methyl-1H-benzo[d][1,2,3]triazol-5-yl)-2,2-dimethyl-3-(5-methyl-4-(((S)-4-methyl-1,1-dioxido-4,5-dihydrobenzo[f][1,2]thiazepin-2(3H)-yl)methyl)thiophen-2-yl)propanoic Acid] was run?
A: < 1 nM
